The subject of one data set is V. harveyi biofilm. Briefly: Quorum sensing (luminescence) in mature biofilm. Type of data set: cell-based. The arrangement: reduction of QS: dose or concentration left out as unconfirmed. To be noted: for reduction of QSI: maximal tested concentration. The protocol: The working protocol for the biofilm disruption assays were conducted as follows. The tested V. harveyi strains (BB120, BB721, BB170, BB886) were grown to cell density of 1.5-2.5×10^9 CFU/ml (15-16 hrs) in AB medium at 30° C. with constant shaking and the suspension was diluted (1:5,000) in fresh AB medium. Aliquot of the suspension (200 μl) was added to each well in a white 96-well plate (NUNC) and incubated for 18 hours at 30° C. without shaking. The formed biofilm was carefully washed twice with saline. Fresh AB medium containing the exemplary ABF agent at the various tested concentrations, and either 10% (v/v) spent medium of V. harveyi MM30 (containing AI-1) or 10% (v/v) spent medium of V. harveyi BB152 (containing AI-2) were added, for further 18 hours of incubation as described above. Each sample was also tested without the spent medium as control to examine self induction. Positive and negative controls were included as described above. Each sample was tested in three separate biological experiments in triplicate samples. Luminescence was calculated as the AUC using the trapezoid rule.

Data set [1] can be described thus: Solubility observed in the Vero cell assay wells. Particulars: at a concentration of 100 μg/ml and above; crystals at bottom of well. Type of data set: physicochemical.

`CCCCCCCCC/C=C1\SC(=O)NC1=O` [TZD10, (Z)-5-decylidenethiazolidine-2,4-dione]: the “reduction of QSI activity” value in the data set on V. harveyi biofilm (AI-1 spent medium, 0.200 μM, BB886) stood at 39%; in the data set with V. harveyi biofilm (AI-1 spent medium, 0.200 μM, wild-type), 62%; in the data set with V. harveyi biofilm (AI-2 spent medium, 2 μM, BB721 (LuxO null)) it was 25%; with V. harveyi biofilm (no AI-1 nor AI-2, BB721, 2 μM), 38%; in the data set with V. harveyi biofilm (no AI-1 nor AI-2, BB721, 20 μM), 63%; in the data set on V. harveyi biofilm (no AI-1 nor AI-2, BB721, 200 μM), 79%. Moreover, the “reduction of QSI activity” value in the data set on V. harveyi biofilm (no AI-1 nor AI-2, BB886, 2 μM) is 30%; in the data set on V. harveyi biofilm (no AI-1 nor AI-2, BB886, 200 μM), 40%. Besides, the “reduction of QS activity” value in the data set on V. harveyi biofilm (AI-1 spent medium, 2 μM, BB886) stood at 10%; with V. harveyi biofilm (AI-1 spent medium, 2 μM, wild type BB120), 18%. Moreover, the “change in QSI” value in the data set with V. harveyi biofilm (AI-2 spent medium, 2 μM, BB170) is “minor increase”; with V. harveyi biofilm (AI-2 spent medium, 2 μM, wild-type BB120) it was “minor increase”. Moreover, the “reduction of QSI” value with V. harveyi biofilm (AI-2 spent medium, BB170) came out at 44%; in the data set on V. harveyi biofilm (AI-2 spent medium, BB721) it was 72%; with V. harveyi biofilm (AI-2 spent medium, wild-type), 35%. Further, the “QS inhibition versus concentration” value in the data set with V. harveyi biofilm (all tested strains, mature biofilm) is “positive dose response”. For the same compound, the “effect on QS” value with V. harveyi biofilm (no AI-1 nor AI-2, BB170, 2 μM) is recorded as “no effect”. In addition, the “reduction of QS” value with V. harveyi biofilm (no AI-1 nor AI-2, BB170, highest tested concentration) came out at 62%. In data set [1], the solubility entry was “not completely soluble”.

For the origin of these results see patent US8865909B2, “Anti-biofilm agents” (Yissum Research Development Company of the Hebrew …, priority 2008, dated 2014).
